Laboratory results reported in the NIST ThermoML archive (doi:10.1021/je3004645).

Settings: for electrical conductivity / mass density / viscosity: 101.33 kPa, Liquid; for electrical conductivity: Alternating current cell with electrodes; for mass density: Pycnometric method; for viscosity: Capillary tube (Ostwald / Ubbelohde) method; for Triple point temperature / Glass transition temperature: DTA

CC[n+]1ccc(C)cc1.O=S(=O)([N-]S(=O)(=O)C(F)(F)F)C(F)(F)F
Settings	Glass transition temperature [°C]	Triple point temperature [K]	electrical conductivity [S/m]	mass density [kg/m3]	viscosity [mPa·s]
–	-74.5	–	–	–	–
283.15 K	–	–	0.424	1505.2	–
288.15 K	–	–	0.525	1501	–
293.15 K	–	–	0.638	1496.1	–
298.15 K	–	–	0.763	1492	32.75
303.15 K	–	–	0.901	1487.7	27.31
308.15 K	–	–	1.05	1483	23.1
313.15 K	–	–	1.21	1478.3	19.69
318.15 K	–	–	1.38	1473.4	16.95
323.15 K	–	–	1.55	1468.8	14.66
328.15 K	–	–	1.75	1464.4	12.85
333.15 K	–	–	1.96	1459.9	11.34
338.15 K	–	–	2.17	1455.1	10.1
343.15 K	–	–	–	–	9.07
348.15 K	–	–	–	–	8.19
353.15 K	–	–	–	–	7.43
358.15 K	–	–	–	–	6.76
363.15 K	–	–	–	–	6.19
Crystal 1	–	291	–	–	–
Crystal 2	–	278.2	–	–	–

CCCC[n+]1ccc(C)cc1.O=S(=O)([N-]S(=O)(=O)C(F)(F)F)C(F)(F)F
Settings	Glass transition temperature [°C]	Triple point temperature [K]	electrical conductivity [S/m]	mass density [kg/m3]	viscosity [mPa·s]
–	-78	–	–	–	–
278.15 K	–	–	0.124	–	–
283.15 K	–	–	0.166	1432.8	–
288.15 K	–	–	0.215	1428.4	–
293.15 K	–	–	0.273	1423.4	–
298.15 K	–	–	0.341	1418.7	55.14
303.15 K	–	–	0.419	1414	44.2
308.15 K	–	–	0.509	1409.3	35.85
313.15 K	–	–	0.6	1404.7	29.61
318.15 K	–	–	0.702	1400.2	24.77
323.15 K	–	–	0.817	1395.8	20.85
328.15 K	–	–	0.941	1391.3	17.86
333.15 K	–	–	1.07	1386.9	15.37
338.15 K	–	–	1.21	1382.5	13.42
343.15 K	–	–	–	–	11.65
348.15 K	–	–	–	–	10.15
353.15 K	–	–	–	–	8.89
358.15 K	–	–	–	–	7.94
Crystal 1	–	292.4	–	–	–
Crystal 2	–	242.2	–	–	–
Crystal 3	–	235.8	–	–	–
